Test results reported in US20230405078A1, “DETECTION AND TREATMENT OF INTESTINAL FIBROSIS” (THE REGENTS OF THE UNIVERSITY OF CALIFORNIA, priority 2020, published 2023).
“Also recorded” adds a separate entry of the source.

Key:
[1] = tested on: primary human intestinal fibroblasts from CD patients; assay: Elafin exposure of primary human intestinal fibroblasts from CD patients (Example 1); assay type: cell-based; conditions: elafin 24 hours
Procedure: FIG. 6. Elafin promotes fibrogenesis in human colonic fibroblasts. (A) The human colonic CCD-18Co fibroblasts were incubated with 100 μl/ml (10%) of human sera from normal, stricturing CD, and non-stricturing CD patients in serum-free DMEM for 24 hours. (B) The human colonic CCD-18Co fibroblasts were incubated with 100 μl/ml (10%) of human sera from high elafin CD group (>8000 pg/ml) and low elafin CD group (<8000 pg/ml) in serum-free DMEM for 24 hours. (C) Serum-starved CCD-18Co fibroblasts were pretreated with 15 μg/ml of anti-elafin neutralizing antibody or control antibody for 30 minutes, followed by exposure to (100 μl/ml) human sera from normal and stricturing CD patients for 24 hours. Six serum donors per group. […] Pro-COL1A1 protein levels in cell lysates were determined by ELISA. (E) Serum-starved primary human intestinal fibroblasts from CD patients were exposed to elafin for 24 hours. mRNA expression was determined by real-time RT-PCR. […]
Total RNA was isolated by an RNeasy kit (#74104, Qiagen) and reverse transcribed into cDNA by a high-capacity cDNA RT kit (#4368813, ThermoFisher). Quantitative PCR reactions were run with Fast Universal PCR master mix (#4352042, ThermoFisher) in a Bio-Rad CFX384 system. […] Relative mRNA quantification was performed by comparing test groups and normal control group, after normalization with endogenous control gene human 18S (Hs99999901_s1).

[2] = cited from earlier work
[3] = tested on: Primary non-IBD patient-derived colonic fibroblasts; assay: TGF-β1-induced collagen expression in primary non-IBD patient-derived colonic fibroblasts; assay type: cell-based, human; conditions: TGF-β1 10 ng/ml; elafin 1 μg/ml 24 hours
Procedure: Cleveland Clinic IRB directives (IRB #17-1167). Primary non-IBD patient-derived colonic fibroblasts (H6231) were purchased from Cell Biologics. All primary colonic fibroblasts were cultured in fibroblast medium (M2267, Cell Biologics). Human colonic CCD-18Co fibroblasts (ATCC) were cultured in minimal essential medium Eagle's medium (MEM) containing 10% fetal bovine serum and 1% penicillin-streptomycin 6, 20. All fibroblasts were grown to 80% confluence and then switched to serum-free media overnight for experiments.
For activation of protease-activated receptors (PARs), fibroblasts were pretreated with 0.8% DMSO, 10 μM PAR1 agonist TRAP-6 (HY-P0078, MCE), 10 μM PAR2 agonist SLIGKV-NH2 (Protease-Activated Receptor-2, amide, HY-P0283, MCE), or 0.4 μg/ml PAR2-activating protease recombinant cathepsin S (1183-CY-010, R&D Systems) for 30 minutes. For miR205-5p activation, fibroblasts were transfected with (30 picomoles/well) either control (YM00479902) or miR205-5p miRCURY LNA mimic (YM00472340) from Qiagen via Lipofectamine 3000 transfection reagent (L3000001, ThermoFisher) in Opti-MEM (#31985062, ThermoFisher) overnight. For miR205-5p inhibition, fibroblasts were pretreated with 50nM either control (Y100199006) or miR205-5p power inhibitors (Y104101508-DDA) from Qiagen overnight. […]

CD patient-derived PBMCs = assay: Cytokine multiplex assay in serum exosome-preconditioned CD PBMCs; assay type: cell-based, human; conditions: CDSE-preconditioned CD PBMCs; 1 μg/ml elafin 6 hours
Procedure: FIG. 30. Cytokine levels in mouse and human sera and CD-PBMCs. (A) Mouse serum cytokine levels were measured by a 23-plex multiplex assay (#M60009RDPD, Bio-Rad). n=5 mice per group. (B) Human serum cytokines were measured by a 27-plex multiplex assay (#M500KCAFOY, Bio-rad). 12 normal, 23 UC, and 43 CD patients. (C) CD patient-derived PBMCs were preconditioned with stricturing CD patient (CDS) or non-stricturing CD patient (CDNS)-derived serum exosomes for two hours, followed by exposure to either 0.1% TFA or 1 μg/ml elafin for 6 hours. The cell supernatants were collected for a 13-plex cytokine multiplex assay (HSTCMAG28SPMX13, Millipore Sigma). (D) A comparison of cytokine levels in mouse sera, human sera, and conditioned media of CDS and CDNS serum exosome-conditioned CD-PBMCs. ns=no significant difference. ND=below detection range. N/A=unavailable. Mo=monocytes. MO=macrophages, DC=dendritic cells.
CD PBMCs (#70052, […] Technologies) were cultured in RPMI1640 media containing 10% exosome-depleted fetal bovine serum (A2720803, ThermoFisher) and 1% penicillin-streptomycin. Some groups were conditioned with 100 μg/ml of human serum exosomes from either CDSE or non-stricturing CD (CDNSE) patients to mimic the CD chemical environment for two hours, followed by addition with either 0.1% TFA or 1 μg/ml elafin. […]

In the case of “Elafin: small (6 kDa) human elastase-specific protease inhibitor and antimicrobial peptide; active form SEQ ID NO: 2 (AQEPVKGPVSTKPGSCPIILIRCAMLNPPNRCLKDTDCPGIKKCCEGSCGMACFVPQ; listed as Homo sapiens)”, the “collagen (COL3A1 and COL1A2), ACTA2 and TGF-b1 mRNA expression” value [1] is listed as “increased”, the “increase of plasma concentration” value ([2]; 200 mg/person intravenous) is listed as > 3000 fold and the “adverse effects / tolerability” value ([2]; 200 mg/person) is listed as “does not cause any adverse effects; also recorded: well tolerated”. For the same substance, the “TGF-β1 induced COL1A2 and ProCOL1A1 protein expression” value [3] was “reversed” and the T-cell cytokine secretion (CD patient-derived PBMCs) was “did not affect”.
